Laboratory results taken from patent US9181234B2, “Antibacterial compounds” (priority 2010, dated 2015).
≈ marks a conversion by molar mass, not a printed value.

Assays:
physchem = conditions: kinetic from dmso stock
Method in brief: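 DMSO doubling dilutions were diluted twenty-fold into 100 mM citrate (pH 4), PBS (pH 7.4) or carbonate-bicarbonate (pH 9). After 24 h equilibration at room temperature, absorbance was read at 620 nm. The reported value is the highest concentration without measurable precipitate.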

[1] = system: Staphylococcus aureus (Isolate ID ATCC 29213); test: Antibacterial activity, MIC, S. aureus; format: cell-based; conditions: Staphylococcus aureus, ATCC29213, Gram positive strain; broth microdilution or agar dilution
Method in brief: (§1)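 Compounds are serially diluted in broth or agar as CLSI specifies for aerobically growing bacteria, and the MIC is then recorded for each strain.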

[2] = system: Enterococcus faecalis (Isolate ID ATCC 29212); test: Antibacterial activity, MIC, E. faecalis; format: cell-based; conditions: Enterococcus faecalis, ATCC29212; Gram positive strain; broth microdilution or agar dilution
Experimental: Bacterial Assay: Determination of Antibacterial Activity
Compounds of the invention were tested for antimicrobial activity by susceptibility testing in liquid or on solid media. MICs for compounds against each strain were determined by the broth microdilution or agar dilution method according to the guidelines of the Clinical Laboratories and Standards Institute, formerly the National Committee for Clinical Laboratory Standards (Clinical Laboratories and Standards Institute. Methods for Dilution Antimicrobial Susceptibility Tests for Bacteria That Grow Aerobically; Approved Standard—Seventh Edition. Document M7-A7. CLSI, Wayne, Pa., 2006; Clinical Laboratories and Standards Institute. The gram positive bacterial strains tested include S. aureus (Staphylococcus aureus (Isolate ID ATCC 29213)), E. faecalis (Enterococcus faecalis (Isolate ID ATCC 29212)) and S. pyogenes (Streptococcus pyogenes (Isolate ID ATCC 51339)). The gram negative bacterial strains tested include H. influenzae (Haemophilus influenzae (Isolate ID ATCC 49247))

[3] = system: Streptococcus pyogenes (Isolate ID ATCC 51339); test: Antibacterial activity, MIC, S. pyogenes; format: cell-based; conditions: Streptococcus pyogenes, ATCC51339, Gram positive strain; broth microdilution or agar dilution
Method in brief: as §1

[4] = system: Haemophilus influenzae (Isolate ID ATCC 49247); test: Antibacterial activity, MIC, H. influenzae; format: cell-based; conditions: Haemophilus influenzae, ATCC49247; Gram negative strain; broth microdilution or agar dilution
Method in brief: as §1

[5] = pH 7.4, aqueous buffer, Solubility (pH 7.4)
[6] = pH 7.4, aqueous buffer, Solubility Range
[7] = pH 7.4, aqueous buffer, Max Solubility
[8] = pH 7.4, aqueous buffer, Solubility Range (maximum solubility)
[9] = pH 9, aqueous buffer, Max Solubility
[10] = pH 9, aqueous buffer, Solubility Range (maximum solubility)

SMILES	solubility at 24 h (physchem; [5])	solubility at 24 h (physchem; [6])	MIC [1]	MIC [2]	MIC [3]	MIC [4]	solubility at 24 h (physchem; [7])	solubility at 24 h (physchem; [8])	solubility at 24 h (physchem; [9])	solubility at 24 h (physchem; [10])
CCNC(=O)Nc1nc2cc(-c3cnc(N4CCC(C)(C(=O)O)CC4)nc3)cc(-c3cccn3C)c2s1 [Compound 30]	≥ 800 µg/mL	> 800 µg/mL	0.25 to 1 µg/mL (≈ 0.481 to 1.92 µM)	≤ 0.25 µg/mL	0.25 to 1 µg/mL (≈ 0.481 to 1.92 µM)	1 to 16 µg/mL (≈ 1.92 to 30.8 µM)	–	–	–	–
CCNC(=O)Nc1nc2cc(-c3cnc(N4CCC(C)(C(=O)O)CC4)nc3)cc(-n3ccnc3)c2s1 [Compound 33]	200 µg/mL (≈ 395 µM)	12.5 to 400 µg/mL (≈ 24.7 to 790 µM)	> 16 µg/mL	1 to 16 µg/mL (≈ 1.97 to 31.6 µM)	1 to 16 µg/mL (≈ 1.97 to 31.6 µM)	> 16 µg/mL	–	–	≥ 800 µg/mL	> 800 µg/mL
CCNC(=O)Nc1nc2cc(-c3cnc(N4CCC(C)(C(=O)O)CC4)nc3)cc(C)c2s1 [Compound 38, 1-{5-[2-(3-Ethyl-ureido)-7-methyl-benzothiazol-5-yl]-pyrimidin-2-yl}-4-methyl-piperidine-4-carboxylic acid]	≥ 800 µg/mL	> 800 µg/mL	0.25 to 1 µg/mL (≈ 0.55 to 2.2 µM)	≤ 0.25 µg/mL	0.25 to 1 µg/mL (≈ 0.55 to 2.2 µM)	> 16 µg/mL	≥ 800 µg/mL	> 800 µg/mL	–	–
CCNC(=O)Nc1nc2cc(-c3cnc(N4CCC(C)(C(=O)O)CC4)cn3)cc(-c3ccccn3)c2s1 [Compound 40]	≥ 800 µg/mL	> 800 µg/mL	0.25 to 1 µg/mL (≈ 0.483 to 1.93 µM)	≤ 0.25 µg/mL	≤ 0.25 µg/mL	1 to 16 µg/mL (≈ 1.93 to 30.9 µM)	≥ 800 µg/mL	> 800 µg/mL	–	–
CCNC(=O)Nc1nc2cc(-c3cnc(N4CCC(C)(C(=O)O)CC4)nc3)cc(-c3ccnc(OC)n3)c2s1 [Compound 42]	25 µg/mL (≈ 45.6 µM)	12.5 to 400 µg/mL (≈ 22.8 to 729 µM)	0.25 to 1 µg/mL (≈ 0.456 to 1.82 µM)	≤ 0.25 µg/mL	≤ 0.25 µg/mL	1 to 16 µg/mL (≈ 1.82 to 29.2 µM)	–	–	100 µg/mL (≈ 182 µM)	12.5 to 400 µg/mL (≈ 22.8 to 729 µM)
CCNC(=O)Nc1nc2cc(-c3cnc(N4CCC(C)(C(=O)O)CC4)nc3)cc(-c3ccnc(C#N)n3)c2s1 [Compound 44]	≥ 800 µg/mL	> 800 µg/mL	1 to 16 µg/mL (≈ 1.84 to 29.4 µM)	≤ 0.25 µg/mL	≤ 0.25 µg/mL	> 16 µg/mL	≥ 800 µg/mL	> 800 µg/mL	–	–
CCNC(=O)Nc1nc2cc(-c3cnc(N4CCC(C)(C(=O)O)CC4)nc3)ccc2s1 [Compound 46, 1-{5-[2-(3-Ethyl-ureido)-benzothiazol-5-yl]-pyrimidin-2-yl}-4-methyl-piperidine-4-carboxylic acid]	100 µg/mL (≈ 227 µM)	12.5 to 400 µg/mL (≈ 28.4 to 908 µM)	1 to 16 µg/mL (≈ 2.27 to 36.3 µM)	0.25 to 1 µg/mL (≈ 0.567 to 2.27 µM)	1 to 16 µg/mL (≈ 2.27 to 36.3 µM)	> 16 µg/mL	–	–	400 µg/mL (≈ 908 µM)	400 to 800 µg/mL (≈ 908 to 1820 µM)
CCNC(=O)Nc1nc2cc(-c3cnc(N4CCC(C)(C(=O)O)CC4)nc3)cc(C3CCOCC3)c2s1 [Compound 47, 1-[5-[2-(ethylcarbamoylamino)-7-tetrahydropyran-4-yl-1,3-benzothiazol-5-yl]pyrimidin-2-yl]-4-methyl-piperidine-4-carboxylic acid]	≥ 800 µg/mL	> 800 µg/mL	1 to 16 µg/mL (≈ 1.91 to 30.5 µM)	0.25 to 1 µg/mL (≈ 0.477 to 1.91 µM)	1 to 16 µg/mL (≈ 1.91 to 30.5 µM)	> 16 µg/mL	≥ 800 µg/mL	> 800 µg/mL	–	–

Now from value to molecule:

solubility at 24 h (physchem; [5])	solubility at 24 h (physchem; [6])	MIC [1]	MIC [2]	MIC [3]	MIC [4]	solubility at 24 h (physchem; [7])	solubility at 24 h (physchem; [8])	solubility at 24 h (physchem; [9])	solubility at 24 h (physchem; [10])	SMILES
≥ 800 µg/mL	> 800 µg/mL	0.25 to 1 µg/mL (≈ 0.538 to 2.15 µM)	≤ 0.25 µg/mL	0.25 to 1 µg/mL (≈ 0.538 to 2.15 µM)	1 to 16 µg/mL (≈ 2.15 to 34.4 µM)	–	–	–	–	C#Cc1cc(-c2cnc(N3CCC(C)(C(=O)O)CC3)nc2)cc2nc(NC(=O)NCC)sc12 [Compound 28]
≥ 800 µg/mL	> 800 µg/mL	0.25 to 1 µg/mL (≈ 0.493 to 1.97 µM)	≤ 0.25 µg/mL	0.25 to 1 µg/mL (≈ 0.493 to 1.97 µM)	1 to 16 µg/mL (≈ 1.97 to 31.6 µM)	–	–	–	–	CCNC(=O)Nc1nc2cc(-c3cnc(N4CCC(C)(C(=O)O)CC4)nc3)cc(-n3cccn3)c2s1 [Compound 29]
≥ 800 µg/mL	> 800 µg/mL	≤ 0.25 µg/mL	≤ 0.25 µg/mL	≤ 0.25 µg/mL	0.25 to 1 µg/mL (≈ 0.47 to 1.88 µM)	≥ 800 µg/mL	> 800 µg/mL	–	–	CCNC(=O)Nc1nc2cc(-c3cnc(N4CCC(C)(C(=O)O)CC4)nc3)cc(-c3ccc(C)cn3)c2s1 [Compound 31]
400 µg/mL (≈ 737 µM)	400 to 800 µg/mL (≈ 737 to 1470 µM)	≤ 0.25 µg/mL	≤ 0.25 µg/mL	≤ 0.25 µg/mL	1 to 16 µg/mL (≈ 1.84 to 29.5 µM)	400 µg/mL (≈ 737 µM)	400 to 800 µg/mL (≈ 737 to 1470 µM)	–	–	CCNC(=O)Nc1nc2cc(-c3cnc(N4CCC(C)(C(=O)O)CC4)nc3)cc(-c3cccc(C#N)n3)c2s1 [Compound 32]
50 µg/mL (≈ 93.2 µM)	12.5 to 400 µg/mL (≈ 23.3 to 745 µM)	≤ 0.25 µg/mL	≤ 0.25 µg/mL	≤ 0.25 µg/mL	1 to 16 µg/mL (≈ 1.86 to 29.8 µM)	–	–	100 µg/mL (≈ 186 µM)	12.5 to 400 µg/mL (≈ 23.3 to 745 µM)	CCNC(=O)Nc1nc2cc(-c3cnc(N4CCC(C)(C(=O)O)CC4)nc3)cc(-c3ncc(F)cn3)c2s1 [Compound 34]
50 µg/mL (≈ 93.5 µM)	12.5 to 400 µg/mL (≈ 23.4 to 748 µM)	≤ 0.25 µg/mL	≤ 0.25 µg/mL	≤ 0.25 µg/mL	1 to 16 µg/mL (≈ 1.87 to 29.9 µM)	–	–	400 µg/mL (≈ 748 µM)	400 to 800 µg/mL (≈ 748 to 1500 µM)	CCNC(=O)Nc1nc2cc(-c3cnc(N4CCC(C)(C(=O)O)CC4)c(F)c3)cc(-c3ccccn3)c2s1 [Compound 36]
≥ 800 µg/mL	> 800 µg/mL	≤ 0.25 µg/mL	≤ 0.25 µg/mL	≤ 0.25 µg/mL	1 to 16 µg/mL (≈ 1.71 to 27.4 µM)	≥ 800 µg/mL	> 800 µg/mL	–	–	CCNC(=O)Nc1nc2cc(-c3cnc(N4CCC(C)(C(=O)O)CC4)nc3)cc(-c3cn(-c4ccccc4)nn3)c2s1 [Compound 41, 1-[5-[2-(ethylcarbamoylamino)-7-(1-phenyltriazol-4-yl)-1,3-benzothiazol-5-yl]pyrimidin-2-yl]-4-methyl-piperidine-4-carboxylic acid]
400 µg/mL (≈ 751 µM)	400 to 800 µg/mL (≈ 751 to 1500 µM)	≤ 0.25 µg/mL	≤ 0.25 µg/mL	≤ 0.25 µg/mL	0.25 to 1 µg/mL (≈ 0.469 to 1.88 µM)	–	–	≥ 800 µg/mL	> 800 µg/mL	CCNC(=O)Nc1nc2cc(-c3cnc(N4CCC(C)(C(=O)O)CC4)nc3)cc(-c3ccnc(C)n3)c2s1 [Compound 43]
≥ 800 µg/mL	> 800 µg/mL	≤ 0.25 µg/mL	≤ 0.25 µg/mL	≤ 0.25 µg/mL	0.25 to 1 µg/mL (≈ 0.469 to 1.88 µM)	≥ 800 µg/mL	> 800 µg/mL	–	–	CCNC(=O)Nc1nc2cc(-c3cnc(N4CCC(C)(C(=O)O)CC4)nc3)cc(-c3cc(C)ncn3)c2s1 [Compound 45]
400 µg/mL (≈ 694 µM)	400 to 800 µg/mL (≈ 694 to 1390 µM)	≤ 0.25 µg/mL	≤ 0.25 µg/mL	≤ 0.25 µg/mL	1 to 16 µg/mL (≈ 1.73 to 27.7 µM)	–	–	≥ 800 µg/mL	> 800 µg/mL	CCNC(=O)Nc1nc2cc(-c3cnc(N4CCC(C)(C(=O)O)CC4)nc3)cc(-c3cc(OC(C)C)ncn3)c2s1 [Compound 48]
≥ 800 µg/mL	> 800 µg/mL	≤ 0.25 µg/mL	≤ 0.25 µg/mL	≤ 0.25 µg/mL	1 to 16 µg/mL (≈ 1.65 to 26.4 µM)	≥ 800 µg/mL	> 800 µg/mL	–	–	CCNC(=O)Nc1nc2cc(-c3cnc(N4CCC(C)(C(=O)O)CC4)nc3)cc(-c3cc(OCCOC)nc(C)n3)c2s1 [Compound 49]
